Assays:
Human Tyrosinase = target: T1, Human Tyrosinase (Homo sapiens, UniProt P14679); assay: Inhibitory effects on human tyrosinase prepared from HM3KO human melanoma cells; assay type: biochemical
T1 construct: endogenous in cells; host or cells: HM3KO human melanoma cells (Triton X-100 extract, dialysed supernatant)
T1 sequence (P14679 19-529): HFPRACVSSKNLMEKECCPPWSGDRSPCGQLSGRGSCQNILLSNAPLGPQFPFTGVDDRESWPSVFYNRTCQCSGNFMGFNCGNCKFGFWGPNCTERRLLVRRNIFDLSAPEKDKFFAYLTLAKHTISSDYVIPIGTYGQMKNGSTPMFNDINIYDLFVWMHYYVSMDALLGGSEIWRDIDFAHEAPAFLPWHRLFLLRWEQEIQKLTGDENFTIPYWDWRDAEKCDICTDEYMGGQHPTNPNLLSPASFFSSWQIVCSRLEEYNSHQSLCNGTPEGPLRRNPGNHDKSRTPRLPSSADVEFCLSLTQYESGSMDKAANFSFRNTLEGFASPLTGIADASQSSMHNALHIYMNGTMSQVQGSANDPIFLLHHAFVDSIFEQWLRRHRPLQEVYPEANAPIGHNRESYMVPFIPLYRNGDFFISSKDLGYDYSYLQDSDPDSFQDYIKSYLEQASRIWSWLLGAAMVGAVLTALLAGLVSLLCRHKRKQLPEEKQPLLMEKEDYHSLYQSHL
Protocol: Human tyrosinase was prepared from the HM3KO human melanoma cell line. HM3KO cells were cultured in modified Eagles medium supplemented with 10% fetal calf serum. Cultured cells were removed from culture dishes and washed once with PBS buffer and centrifuged. The cell pellet was sonicated in 100 mM sodium phosphate buffer (pH6.8) containing 0.1 mM phenylmethylsulfonyl fluoride (PMSF) and 1% Triton X-100, incubated in ice for 1 hr to solubilize the tyrosinase, and centrifuged. The supernatant was dialyzed against 50 mM sodium phosphate buffer (pH 6.8) and then used as the source of human tyrosinase for use in our inhibition assays.
As in the mushroom and murine tyrosinase experiments discussed above, the amount of dopachrome in the reaction mixture was determined spectrophotmetrically using absorbance measurement at 490 nm.

melan-a cell line = assay: Melanin production in melan-a cell line; assay type: cell-based; conditions: melan-a cells; for Melanin production (%): 72 hr
Protocol: Melan-a cells were grown in 10 mL of RPMI 1640 medium supplemented with antibiotics, 10% fetal bovine serum (FBS), and 20 nM TPA. The cell suspension was inoculated in a 24-well plate (10^5 cells/mL) and the cells were allowed to completely adhere to the plate for 24 hr. Test samples dissolved in DMSO were added to the plate and incubated at 37° C. for 72 hr in a CO2 incubator. The culture medium was then thoroughly removed and the cells were isolated through trypsin treatment. The suspensions were then centrifuged for 5 min to collect cells, which were then treated with 5% trichloroacetic acid (TCA), stirred and centrifuged to precipitate the melanin. Melanin was washed with PBS and dissolved in 1 N NaOH. Absorbance at 475 nm was measured. Melanin concentration was determined from a standard concentration curve of synthetic melanin (SIGMA Co., USA).

Mushroom Tyrosinase [1] = assay: Inhibitory effects on mushroom tyrosinase (dopachrome, OD490, 15 min); assay type: biochemical
Protocol: (§1) L-Tyrosine, the substrate for tyrosinase, was dissolved in 50 mM sodium phosphate buffer (pH6.8) to prepare a solution of 0.1 mg/mL L-tyrosine. […] 100 μL of the L-tyrosine solution was introduced into a test tube, and 100 μL of 50 mM sodium phosphate buffer (pH6.8) with or without test samples were added thereto, and then 10 μL of 200 U/mL tyrosinase were mixed and incubated at 37° C. for 15 min.
The amount of dopachrome in the reaction mixture was determined spectrophotmetrically using absorbance measurement at 490 nm.

tyrosinase mRNA = assay: RT-PCR analysis of tyrosinase mRNA in murine melanoma B-16 cells; assay type: cell-based; conditions: FIG. 5
Protocol: To elucidate the mechanism by which Morus alba extract and mulberroside A exerts its effect, RT-PCR analysis was performed. mRNA from cultured murine melanoma B-16 cells were isolated using a Promega polytract system 1000 mRNA isolation kit. Approximately 80 to 100 μg of mRNA was isolated from 10^8 cells. We synthesized the 3′ primer 5′[…]3′ (nucleotides 197-216 from the ATG start codon) and the 5′ primer 5′[…]3′ (nucleotides 669-688 from the ATG start codon) for use in the RT-PCR analysis of tyrosinase mRNA.
This mixture was incubated for 1 minute at 94° C., then for 30 seconds at 55° C. and finally for 10 minutes at 72° C.
For PCR amplification of cDNA, 80 μL of a PCR mixture containing 8 μL of 10× chelating buffer, 1 mM MgCl2 and 50 pmole of 5′ primer was added to the reverse transcription reaction mixture. DNA amplification was performed on a Perkin Elmer Gene Amp PCR system 2400 thermal cycler. The PCR cycle conditions included melting for 30 sec at 94° C., annealing for 30 sec at 55° C., and extension for 1 min at 72° C. The PCR ran for 28 cycles, and the products (492 bp) were analyzed by 2% agarose gel electrophoresis. As an internal control, mouse β-actin mRNA was also amplified using the mouse β-actin amplimer set (Clontech, USA).

melanocytes = assay: Microscopic observation of pigmentation of confluent melanocyte monolayer; assay type: cell-based; conditions: cell line not specified
Excerpt: The pigmentation of a confluent monolayer of melanocytes is visible microscopically, as the cells contain black melanin pigment.

Mushroom Tyrosinase [2] = assay: Extended duration of mushroom tyrosinase inhibition (up to 24 hours); assay type: biochemical
Protocol: as §1
Using the experimental conditions described in the Mushroom Tyrosinase experiment described above, the reaction mixtures, containing various concentrations from 1 μg/mL to 50 μg/mL of the agents assayed, were incubated at 37° C. and spectrophotometric measurements of dopachrome were made at time intervals of up to 24 hours.

Murine Tyrosinase = target: T2, Murine Tyrosinase (Mus musculus, UniProt P11344); assay: Inhibitory effects on murine tyrosinase prepared from melanoma B-16 cells; assay type: biochemical; conditions: tyrosinase from melanoma B-16 cells
T2 construct: supernatant was dialyzed against 50 mM sodium phosphate buffer (pH 6.8) and then used as a source of murine tyrosinase; endogenous in cells; host or cells: murine melanoma B-16 cells (Triton X-100 extract, dialysed supernatant)
T2 sequence (P11344 19-533): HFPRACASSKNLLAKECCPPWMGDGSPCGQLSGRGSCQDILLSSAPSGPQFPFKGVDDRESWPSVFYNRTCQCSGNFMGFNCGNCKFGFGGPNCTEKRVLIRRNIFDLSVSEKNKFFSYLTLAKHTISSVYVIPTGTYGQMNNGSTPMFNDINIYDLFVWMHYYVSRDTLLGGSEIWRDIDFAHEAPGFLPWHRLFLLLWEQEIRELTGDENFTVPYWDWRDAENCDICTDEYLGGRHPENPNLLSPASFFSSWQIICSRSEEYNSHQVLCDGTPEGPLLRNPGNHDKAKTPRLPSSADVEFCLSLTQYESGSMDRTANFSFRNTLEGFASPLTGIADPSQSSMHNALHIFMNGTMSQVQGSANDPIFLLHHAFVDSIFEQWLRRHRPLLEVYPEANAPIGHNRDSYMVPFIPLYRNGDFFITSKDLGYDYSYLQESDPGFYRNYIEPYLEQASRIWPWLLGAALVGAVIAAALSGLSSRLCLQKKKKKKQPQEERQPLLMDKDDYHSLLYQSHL
Protocol: Murine tyrosinase was prepared from the melanoma B-16 cell line. Murine melanoma B-16 cells were grown in DMEM (13.4 mg/mL of Dulbecco's modified Eagle's medium, 24 mM NaHCO3, 10 mM HEPES, 143 units/mL of penicillin G potassium, 160 μg/mL of streptomycin sulfate, pH 7.1) containing 10% fetal bovine serum (FBS) with 5% CO2 at 37° C. When the cells were confluent, melanoma cells were removed from culture dishes and washed once with PBS buffer. The cell suspension was centrifuged at 250×g for 10 min at 4° C. The cell pellet was suspended in 0.5 mL of 50 mM sodium phosphate buffer (pH 6.8) containing 0.1 mM phenylmethylsulfonyl fluoride and 0.5% Triton X-100. The cell suspension was sonicated six times for 30 sec each with 1 min intervals and then incubated at 4° C. for 1 hr to solubilize the tyrosinase. After centrifugation at 50,000×g for 20 min at 4° C., supernatant was dialyzed against 50 mM sodium phosphate buffer (pH 6.8) and then used as a source of murine tyrosinase.
As in the mushroom tyrosinase experiment discussed above, the amount of dopachrome in the reaction mixture was determined spectrophotmetrically using absorbance measurement at 490 nm.

[3] = tested on: murine melanoma B16 cells; assay: Melanin production in murine melanoma B-16 cells; assay type: cell-based; conditions: for Melanin production (%): B16 cells, 3 days
Protocol: The melanoma cell line was grown in DMEM culture medium containing 4.5 g of glucose/l, 10% fetal bovine serum and 1% antibiotic agent and cultivated at 37° C. under a condition of 5% CO2. The cell suspension was inoculated in a 50 mL T-flask (3×10^5 cells/mL) and the cells were allowed to completely adhere to the plate for 24 hr. Then, test samples diluted in DMEM medium at concentrations of 1, 5, 10, 50, and 100 μg/mL were added to the cultivated cells, and the mixture was cultivated at 5% CO2 and 37° C. for 3 days. After cultivation, culture medium was thoroughly removed and the cells were isolated via trypsin treatment. The suspensions were then centrifuged for 5 min to collect cells. The obtained cells were treated with 5% trichloroacetic acid (TCA), stirred and centrifuged. The precipitated melanin was washed with phosphate buffered saline (PBS), and treated with 1 N NaOH to dissolve the melanin therein. Absorbance at 475 nm was measured. Melanin concentration was determined from a standard concentration curve of synthetic melanin (SIGMA Co., USA).

OC[C@H]1O[C@@H](Oc2cc(O)cc(/C=C/c3ccc(O[C@@H]4O[C@H](CO)[C@@H](O)[C@H](O)[C@H]4O)cc3O)c2)[C@H](O)[C@@H](O)[C@@H]1O [Mulberroside A, mulberroside A]
IC50 (Human Tyrosinase): 76.8 µM | Melanin production (%) (melan-a cell line; 1 μg/mL): 98.5 ± 7.2% | Melanin production (%) (melan-a cell line; 5 μg/mL): 93.6 ± 4.8% | Melanin production (%) (melan-a cell line; 10 μg/mL): 92.8 ± 6.5% | Melanin production (%) (melan-a cell line; 50 μg/mL): 61.2 ± 8.0% | reduction in melanin production (melan-a cell line; 100 μg/mL): 76.3% | Melanin production (%) (melan-a cell line; 100 μg/mL): 23.7 ± 3.8% | IC50 (Mushroom Tyrosinase [1]; 37° C., 15 min, L-tyrosine substrate): 9.5 µM | inhibitory effect on mushroom tyrosinase (in words) (Mushroom Tyrosinase [1]; FIGS. 1 and 2): the most potent inhibitors of mushroom tyrosinase | amount of tyrosinase mRNA (tyrosinase mRNA): decreased the amount of tyrosinase mRNA in a dose-dependent manner | pigmentation of treated cells observed microscopically (melanocytes): Reduced pigmentation | fold stronger inhibitory effect on tyrosinase activity than kojic acid (Mushroom Tyrosinase [2]; from IC50 values after 24 hours incubation): 12 fold | IC50 (Mushroom Tyrosinase [2]; read-out: IC50 for tyrosinase inhibition after 24 hours incubation, 24 hours incubation): 20 µM | IC50 (Murine Tyrosinase): 61.5 µM | Melanin production (%) ([3]; 1 μg/mL): 98.3 ± 1.0% | Melanin production (%) ([3]; 5 μg/mL): 92.4 ± 2.1% | Melanin production (%) ([3]; 10 μg/mL): 91.2 ± 7.3% | Melanin production (%) ([3]; 50 μg/mL): 59.8 ± 9.0% | Melanin production (%) ([3]; 100 μg/mL): 21.8 ± 5.4% | reduction in melanin production ([3]; melanoma B-16 cells, 100 μg/mL): 78.2%

Source: patent US20060216253A1, “Whitening cosmetics containing morus alba extracts” (Time and Cross, Inc., priority 2005, published 2006)
